Results taken from ChEMBL document CHEMBL1138114, “Convergent, parallel synthesis of a series of beta-substituted 1,2,4-oxadiazole butanoic acids as potent and selective alpha(v)beta3 receptor antagonists” (Bioorg Med Chem Lett, 2006).

Tests used:
Rattus norvegicus = test: AUC/dose(mg/kg) in orally dosed rat at 10 mg/kg; format: ADME, organism-based, Plasma; parameters: dose 10 mg/kg, route oral; settings: in vivo, po
Integrin alpha-V/beta-6 = Integrin alpha-V/beta-6 (Homo sapiens, UniProt P06756+P18564); test: Inhibition of Integrin alphav-beta6 receptor expressed in HT29 cell line; format: cell-based, HT-29
Integrin alpha-V/beta-1 = Integrin alpha-V/beta-1 (Homo sapiens, UniProt P05556+P06756); test: Inhibition of Integrin alphav-beta1 receptor expressed in HEK293 cell line; format: cell-based
[1] = Bioavailability in rat at 5 mg/kg, iv; format: ADME, organism-based; settings: in vivo
Integrin alpha-V/beta-3 [2] = target: T1, Integrin alpha-V/beta-3 (Homo sapiens, UniProt P05106+P06756); test: Inhibition of Integrin alphav-beta3 receptor expressed in HEK293 cells; format: cell-based
[3] = Volume of distribution in rat at 5 mg/kg, iv; format: ADME, organism-based; parameters: dose 5 mg/kg, route intravenous; settings: in vivo, read-out: Vdss
Integrin alpha-V/beta-3 [4] = target: T1, Integrin alpha-V/beta-3; test: Inhibition of Integrin alphav-beta3 receptor by SPRA assay; format: protein-complex assay
Integrin alpha-V/beta-5 = Integrin alpha-V/beta-5 (Homo sapiens, UniProt P06756+P18084); test: Inhibition of Integrin alphav-beta5 receptor expressed in HEK293 cell line; format: cell-based
[5] = target: Integrin alpha-IIb/beta-3 (Homo sapiens, UniProt P05106+P08514); test: Inhibition of Integrin alpha-2b-beta-3 receptor by SPRA assay; format: protein-complex assay
[6] = Half life in rat at 5 mg/kg, iv; format: ADME, organism-based; parameters: dose 5 mg/kg, route intravenous; settings: in vivo
[7] = Clearance in rat at 5 mg/kg, iv; format: ADME, organism-based; parameters: dose 5 mg/kg, route intravenous; settings: in vivo

Chain of Integrin alpha-V/beta-5 (P06756 31-889 limits assumed): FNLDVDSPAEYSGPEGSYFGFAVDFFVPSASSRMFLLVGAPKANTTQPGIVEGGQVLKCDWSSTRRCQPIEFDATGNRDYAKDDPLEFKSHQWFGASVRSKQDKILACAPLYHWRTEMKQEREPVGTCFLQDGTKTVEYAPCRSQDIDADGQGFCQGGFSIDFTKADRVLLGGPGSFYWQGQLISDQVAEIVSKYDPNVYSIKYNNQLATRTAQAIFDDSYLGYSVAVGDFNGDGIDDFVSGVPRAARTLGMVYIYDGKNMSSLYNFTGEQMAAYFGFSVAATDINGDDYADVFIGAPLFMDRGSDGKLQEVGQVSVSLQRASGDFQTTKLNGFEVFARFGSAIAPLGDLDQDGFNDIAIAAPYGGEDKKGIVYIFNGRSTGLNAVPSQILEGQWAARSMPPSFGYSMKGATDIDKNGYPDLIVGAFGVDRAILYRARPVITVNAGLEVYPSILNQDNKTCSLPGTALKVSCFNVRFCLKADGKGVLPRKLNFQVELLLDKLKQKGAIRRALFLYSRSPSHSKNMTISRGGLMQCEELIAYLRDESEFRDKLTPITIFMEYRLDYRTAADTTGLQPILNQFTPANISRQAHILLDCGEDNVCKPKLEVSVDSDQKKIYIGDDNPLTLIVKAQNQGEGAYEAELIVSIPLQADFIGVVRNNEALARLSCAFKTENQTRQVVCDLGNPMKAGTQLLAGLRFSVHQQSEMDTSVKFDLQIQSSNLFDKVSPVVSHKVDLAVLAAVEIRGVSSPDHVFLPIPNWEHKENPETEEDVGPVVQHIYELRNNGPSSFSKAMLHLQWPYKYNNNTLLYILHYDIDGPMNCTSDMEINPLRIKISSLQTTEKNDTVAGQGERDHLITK
Chain of Integrin alpha-V/beta-5 (P06756 891-1048 limits assumed): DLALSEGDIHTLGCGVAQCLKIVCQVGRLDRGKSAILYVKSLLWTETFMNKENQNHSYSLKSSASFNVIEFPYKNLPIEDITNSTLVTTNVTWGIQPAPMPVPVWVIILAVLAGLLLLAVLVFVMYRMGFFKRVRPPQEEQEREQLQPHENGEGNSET
Chain of Integrin alpha-V/beta-5 (P18084 24-799 limits assumed): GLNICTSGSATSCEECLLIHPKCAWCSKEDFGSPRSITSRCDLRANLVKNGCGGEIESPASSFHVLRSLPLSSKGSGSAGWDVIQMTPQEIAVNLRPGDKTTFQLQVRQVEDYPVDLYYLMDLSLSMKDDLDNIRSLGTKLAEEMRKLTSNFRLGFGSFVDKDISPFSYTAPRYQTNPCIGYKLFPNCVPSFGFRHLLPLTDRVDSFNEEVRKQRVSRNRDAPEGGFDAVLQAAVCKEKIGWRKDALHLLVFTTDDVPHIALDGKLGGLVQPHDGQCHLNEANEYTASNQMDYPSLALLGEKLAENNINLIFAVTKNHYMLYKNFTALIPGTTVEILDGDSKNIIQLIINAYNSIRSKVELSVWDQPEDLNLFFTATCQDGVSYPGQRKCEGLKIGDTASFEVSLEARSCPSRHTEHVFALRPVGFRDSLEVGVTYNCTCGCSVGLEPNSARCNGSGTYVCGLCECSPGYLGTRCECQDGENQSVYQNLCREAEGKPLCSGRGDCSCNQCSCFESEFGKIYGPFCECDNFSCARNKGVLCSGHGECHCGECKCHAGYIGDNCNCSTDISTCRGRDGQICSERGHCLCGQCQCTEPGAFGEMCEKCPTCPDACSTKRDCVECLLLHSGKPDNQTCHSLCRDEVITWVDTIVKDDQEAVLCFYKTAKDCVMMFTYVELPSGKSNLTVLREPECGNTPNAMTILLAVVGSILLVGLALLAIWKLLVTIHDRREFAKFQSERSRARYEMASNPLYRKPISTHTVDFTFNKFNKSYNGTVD
Chain of Integrin alpha-V/beta-6 (P06756 31-889 limits assumed): as the sequence (P06756 31-889 limits assumed) above
Chain of Integrin alpha-V/beta-6 (P06756 891-1048 limits assumed): as the sequence (P06756 891-1048 limits assumed) above
Chain of Integrin alpha-V/beta-6 (P18564 22-788 limits assumed): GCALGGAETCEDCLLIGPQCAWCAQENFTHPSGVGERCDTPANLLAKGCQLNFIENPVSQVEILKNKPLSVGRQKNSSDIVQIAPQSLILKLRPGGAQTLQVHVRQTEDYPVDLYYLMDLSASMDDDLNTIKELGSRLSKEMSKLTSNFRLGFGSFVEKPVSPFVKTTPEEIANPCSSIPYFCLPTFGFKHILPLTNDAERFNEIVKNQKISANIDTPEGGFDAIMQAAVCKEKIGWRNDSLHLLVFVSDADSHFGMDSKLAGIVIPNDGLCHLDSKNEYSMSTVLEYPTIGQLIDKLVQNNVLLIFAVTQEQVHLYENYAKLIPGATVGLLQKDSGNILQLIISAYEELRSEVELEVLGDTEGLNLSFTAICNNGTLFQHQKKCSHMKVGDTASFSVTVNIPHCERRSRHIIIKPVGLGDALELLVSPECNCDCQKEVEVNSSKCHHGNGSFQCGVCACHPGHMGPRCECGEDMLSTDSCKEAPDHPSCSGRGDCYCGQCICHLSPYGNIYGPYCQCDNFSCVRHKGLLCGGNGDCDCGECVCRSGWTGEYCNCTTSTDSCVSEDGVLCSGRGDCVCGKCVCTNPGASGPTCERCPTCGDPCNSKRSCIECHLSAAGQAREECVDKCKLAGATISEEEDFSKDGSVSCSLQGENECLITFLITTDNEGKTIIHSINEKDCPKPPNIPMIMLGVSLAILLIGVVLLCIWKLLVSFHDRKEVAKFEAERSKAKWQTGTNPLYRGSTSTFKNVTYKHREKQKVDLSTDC
Chain of Integrin alpha-IIb/beta-3 (P05106 27-788 limits assumed): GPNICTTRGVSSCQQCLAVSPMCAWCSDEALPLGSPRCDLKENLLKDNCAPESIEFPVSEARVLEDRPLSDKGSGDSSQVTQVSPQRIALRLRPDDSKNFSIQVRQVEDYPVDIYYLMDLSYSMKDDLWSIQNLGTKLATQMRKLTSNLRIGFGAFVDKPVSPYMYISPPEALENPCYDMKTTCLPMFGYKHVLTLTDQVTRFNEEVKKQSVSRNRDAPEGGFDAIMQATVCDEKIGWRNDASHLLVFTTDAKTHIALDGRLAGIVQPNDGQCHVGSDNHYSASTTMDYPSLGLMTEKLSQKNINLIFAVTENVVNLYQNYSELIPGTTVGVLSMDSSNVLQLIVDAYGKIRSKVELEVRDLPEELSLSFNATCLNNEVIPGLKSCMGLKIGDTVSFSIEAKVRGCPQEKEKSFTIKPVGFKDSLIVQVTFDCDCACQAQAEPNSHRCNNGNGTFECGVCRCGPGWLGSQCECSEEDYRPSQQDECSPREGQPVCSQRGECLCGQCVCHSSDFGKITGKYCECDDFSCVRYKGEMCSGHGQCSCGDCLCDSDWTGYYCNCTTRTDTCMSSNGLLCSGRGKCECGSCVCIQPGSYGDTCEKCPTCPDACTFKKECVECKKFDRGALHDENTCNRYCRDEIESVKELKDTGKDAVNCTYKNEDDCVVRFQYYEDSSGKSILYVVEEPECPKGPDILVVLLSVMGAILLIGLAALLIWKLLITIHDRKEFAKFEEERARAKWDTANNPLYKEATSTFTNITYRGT
Chain of Integrin alpha-IIb/beta-3 (P08514 32-887 limits assumed): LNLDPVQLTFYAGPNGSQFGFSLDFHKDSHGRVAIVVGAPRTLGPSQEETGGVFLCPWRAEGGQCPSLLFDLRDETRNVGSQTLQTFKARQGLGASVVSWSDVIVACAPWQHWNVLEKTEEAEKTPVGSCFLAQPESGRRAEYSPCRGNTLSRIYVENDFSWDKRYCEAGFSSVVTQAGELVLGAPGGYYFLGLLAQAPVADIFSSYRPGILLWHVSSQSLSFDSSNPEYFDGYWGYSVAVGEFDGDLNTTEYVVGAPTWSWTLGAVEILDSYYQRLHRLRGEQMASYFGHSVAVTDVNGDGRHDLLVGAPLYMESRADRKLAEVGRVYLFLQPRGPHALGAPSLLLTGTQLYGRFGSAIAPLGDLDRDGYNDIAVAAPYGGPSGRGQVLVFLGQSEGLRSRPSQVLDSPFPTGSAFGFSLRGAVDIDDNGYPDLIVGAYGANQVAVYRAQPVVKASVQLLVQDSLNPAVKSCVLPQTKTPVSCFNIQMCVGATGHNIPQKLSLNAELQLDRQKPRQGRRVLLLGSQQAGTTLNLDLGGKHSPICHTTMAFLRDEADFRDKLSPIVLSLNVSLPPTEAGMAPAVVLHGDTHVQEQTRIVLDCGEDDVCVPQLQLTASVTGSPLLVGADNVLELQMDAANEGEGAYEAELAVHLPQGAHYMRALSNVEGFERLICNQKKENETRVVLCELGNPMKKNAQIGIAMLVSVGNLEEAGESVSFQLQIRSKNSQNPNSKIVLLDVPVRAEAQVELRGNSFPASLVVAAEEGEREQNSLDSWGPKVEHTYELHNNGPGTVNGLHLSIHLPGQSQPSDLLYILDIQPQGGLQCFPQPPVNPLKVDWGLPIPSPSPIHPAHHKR
Chain of Integrin alpha-IIb/beta-3 (P08514 891-1039 limits assumed): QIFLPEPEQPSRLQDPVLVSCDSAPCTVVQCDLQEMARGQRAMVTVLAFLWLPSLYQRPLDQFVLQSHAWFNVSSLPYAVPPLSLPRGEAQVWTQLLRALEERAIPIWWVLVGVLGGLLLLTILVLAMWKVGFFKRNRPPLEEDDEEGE
T1 sequence (P05106 27-788 limits assumed): as the sequence (P05106 27-788 limits assumed) above
T1 sequence (P06756 31-889 limits assumed): as the sequence (P06756 31-889 limits assumed) above
T1 sequence (P06756 891-1048 limits assumed): as the sequence (P06756 891-1048 limits assumed) above

AUC/dose (Rattus norvegicus) | IC50 (Integrin alpha-V/beta-6) | IC50 (Integrin alpha-V/beta-1) | bioavailability [1] | IC50 (Integrin alpha-V/beta-3 [2]) | Vd [3] | IC50 (Integrin alpha-V/beta-3 [4]) | IC50 (Integrin alpha-V/beta-5) | IC50 [5] | half-life [6] | clearance [7] | SMILES
1500 ng·h/mL/(mg/kg) | 2660 nM | 2.6 nM | 95% | 0.65 nM | 0.733 L/kg | 0.4 nM | 1.7 nM | 27 nM | 1.4 h | 10.9 mL/min/kg | O=C(O)C[C@H](Cc1nc(CCCc2ccc3c(n2)NCCC3)no1)c1ccc2c(c1)OCO2
710 ng·h/mL/(mg/kg) |  |  | 77% |  | 0.447 L/kg | 1.7 nM |  |  | 0.93 h | 18.2 mL/min/kg | CN1CCNc2nc(CCCc3noc(CC(CC(=O)O)c4ccc5c(c4)OCO5)n3)ccc21 (stereo not given)
 | 486 nM | 2.7 nM |  | 0.32 nM |  | 0.5 nM |  | 65.4 nM |  |  | O=C(O)CC(Cc1nc(CCCc2ccc3c(n2)NCCC3)no1)c1ccc2ncoc2c1 (stereo not given)
 |  |  |  |  |  | 9.5 nM |  | 8130 nM |  |  | O=C(O)CC1(Cc2nc(CCCc3ccc4c(n3)NCCC4)no2)CCCC1
 | 6240 nM |  |  | 4 nM |  | 8.7 nM | 4 nM | 1220 nM |  |  | C#CC(CC(=O)O)Cc1nc(CCCc2ccc3c(n2)NCCC3)no1 (stereo not given)
 | 3730 nM |  |  | 1.1 nM |  | 1.75 nM | 3.7 nM | 419 nM |  |  | O=C(O)CC(Cc1nc(CCCc2ccc3c(n2)NCCC3)no1)c1cccc(F)c1 (stereo not given)
3050 ng·h/mL/(mg/kg) | 1590 nM |  | 96% | 0.6 nM | 0.497 L/kg | 1.43 nM | 1.2 nM | 168 nM | 1.8 h | 5.56 mL/min/kg | O=C(O)CC(Cc1nc(CCCc2ccc3c(n2)NCCC3)no1)c1cnc(C2CC2)s1 (stereo not given)
 |  |  |  |  |  | 1.1 nM |  | 64 nM |  |  | COc1ccnc(NCCCCc2noc(C[C@@H](CC(=O)O)c3ccc4c(c3)OCO4)n2)c1
 |  |  |  |  |  | 2 nM |  | 91 nM |  |  | Cc1ccnc(NCCCCc2noc(C[C@@H](CC(=O)O)c3ccc4c(c3)OCO4)n2)c1
 |  |  |  |  |  | 3.6 nM |  | 950 nM |  |  | CC(CC(=O)O)(Cc1nc(CCCc2ccc3c(n2)NCCC3)no1)c1cccnc1 (stereo not given)
 |  |  |  |  |  | 1.28 nM |  | 423 nM |  |  | Cc1ncc(C(CC(=O)O)Cc2nc(CCCc3ccc4c(n3)NCCC4)no2)s1 (stereo not given)
 | 4360 nM |  |  | 0.74 nM |  | 0.78 nM | 4.6 nM | 17 nM |  |  | O=C(O)C[C@H](Cc1nc(CCCCNc2cc(N3CCOCC3)ccn2)no1)c1ccc2c(c1)OCO2
 |  |  |  |  |  | 116 nM |  | 35800 nM |  |  | CC(CC(=O)O)(Cc1nc(CCCc2ccc3c(n2)NCCC3)no1)c1ccccc1 (stereo not given)
600 ng·h/mL/(mg/kg) |  |  | 66% |  | 0.622 L/kg | 0.65 nM |  | 18 nM | 1.1 h | 19.1 mL/min/kg | O=C(O)CC(Cc1nc(CCCc2ccc3c(n2)NCCC3)no1)c1cnc2ccccc2c1 (stereo not given)

The remaining lines, values behind:

SMILES | AUC/dose (Rattus norvegicus) | IC50 (Integrin alpha-V/beta-6) | IC50 (Integrin alpha-V/beta-1) | bioavailability [1] | IC50 (Integrin alpha-V/beta-3 [2]) | Vd [3] | IC50 (Integrin alpha-V/beta-3 [4]) | IC50 (Integrin alpha-V/beta-5) | IC50 [5] | half-life [6] | clearance [7]
O=C(O)C[C@H](Cc1nc(CCCCNc2cc(N3CCSCC3)ccn2)no1)c1ccc2c(c1)OCO2 | 60 ng·h/mL/(mg/kg) | 2670 nM |  | 29% | 0.62 nM | 0.897 L/kg | 0.26 nM | 2.9 nM | 22 nM | 0.4 h | 78 mL/min/kg
O=C(O)CC(Cc1nc(CCCc2ccc3c(n2)NCCC3)no1)c1ccccc1 (stereo not given) |  |  |  |  |  |  | 1.8 nM |  | 747 nM |  | 
O=C(O)C[C@H](Cc1nc(CCCCNc2ccccn2)no1)c1ccc2c(c1)OCO2 |  |  |  |  |  |  | 2.4 nM |  | 126 nM |  | 
O=C(O)CCCc1nc(CCCc2ccc3c(n2)NCCC3)no1 |  |  |  |  |  |  | 160 nM |  | 32500 nM |  | 
CC(C)(CC(=O)O)Cc1nc(CCCc2ccc3c(n2)NCCC3)no1 |  |  |  |  |  |  | 20 nM |  | 12600 nM |  | 
O=C(O)CC(Cc1nc(CCCc2ccc3c(n2)NCCC3)no1)c1cccnc1 (stereo not given) |  | 2420 nM |  |  | 0.77 nM |  | 1.6 nM | 3.3 nM | 474 nM |  | 
COc1ccc(C(CC(=O)O)Cc2nc(CCCc3ccc4c(n3)NCCC4)no2)cn1 (stereo not given) | 1910 ng·h/mL/(mg/kg) |  |  | 100% |  | 0.694 L/kg | 1 nM |  | 187 nM | 1.1 h | 12 mL/min/kg
O=C(O)CC(Cc1nc(CCCc2ccc3c(n2)NCCC3)no1)c1cnn(-c2ccccc2)c1 (stereo not given) |  |  |  |  |  |  | 1.2 nM |  | 216 nM |  | 
O=C(O)CC(Cc1nc(CCCc2ccc3c(n2)NCCC3)no1)c1ccc2c(c1)OCC2 (stereo not given) | 970 ng·h/mL/(mg/kg) | 3020 nM | 9.7 nM | 63% | 0.63 nM | 0.803 L/kg | 2.1 nM |  | 224 nM | 1.2 h | 17.3 mL/min/kg
CNc1cccc(CCCc2noc(CC(CC(=O)O)c3ccc4c(c3)OCO4)n2)n1 (stereo not given) |  | > 10000 nM |  |  | 3.2 nM |  | 2.1 nM | 16 nM | 278 nM |  | 
CC(CC(=O)O)Cc1nc(CCCc2ccc3c(n2)NCCC3)no1 (stereo not given) |  |  |  |  |  |  | 12 nM |  | 9300 nM |  | 
